Measured values taken from US6765085B2, “Receptor kinase, BIN1” (The Salk Institute for Biological Studies, priority 1997, dated 2004).
Where two headings read alike, the source gives them in different places.

Tests used:
plants = conditions: cited from earlier work
[1] = target: T1, BIN1-116, Q583-stop (70-aa island) (Arabidopsis thaliana, UniProt O22476); format: binding; conditions: BIN1-116 mutant, compared with wild type
T1 construct: microsomal fractions of wild type (WT), det2, BIN1-6, BIN1-116, BIN1-104, and BIN1-102 mutant plants; from tissue; host or cells: microsomal fractions of BIN1-116 mutant Arabidopsis plants
T1 sequence (O22476 24-582 limits assumed): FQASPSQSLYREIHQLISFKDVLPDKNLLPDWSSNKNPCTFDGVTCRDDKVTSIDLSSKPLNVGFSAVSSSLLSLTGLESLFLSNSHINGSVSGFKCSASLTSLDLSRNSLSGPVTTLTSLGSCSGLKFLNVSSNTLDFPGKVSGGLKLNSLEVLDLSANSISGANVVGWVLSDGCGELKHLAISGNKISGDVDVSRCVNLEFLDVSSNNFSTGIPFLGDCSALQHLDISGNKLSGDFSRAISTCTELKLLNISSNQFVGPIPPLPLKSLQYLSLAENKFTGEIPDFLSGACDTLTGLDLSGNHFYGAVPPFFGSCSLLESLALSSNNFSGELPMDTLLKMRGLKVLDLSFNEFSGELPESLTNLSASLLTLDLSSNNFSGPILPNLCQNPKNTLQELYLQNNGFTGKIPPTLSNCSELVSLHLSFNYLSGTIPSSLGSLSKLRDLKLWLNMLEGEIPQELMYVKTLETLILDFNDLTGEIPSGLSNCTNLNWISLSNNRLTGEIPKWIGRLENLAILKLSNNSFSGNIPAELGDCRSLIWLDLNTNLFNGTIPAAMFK
From the text: (§1) Mutations in large numbers of BIN1 alleles implicate the functional importance of the cytoplasmic kinase domain and the 70-aa island of BIN1's extracellular domain.
(§2) Tetrahedron Lett. 39, 7525-7528 (1998). […] Science 288, 2360-3 (2000).

[2] = target: T2, BIN1-6, G644-D (70-aa island) (Arabidopsis thaliana, UniProt O22476, G644D); format: binding; conditions: BIN1-6 mutant, compared with wild type
T2 construct: microsomal fractions of wild type (WT), det2, BIN1-6, BIN1-116, BIN1-104, and BIN1-102 mutant plants; from tissue; host or cells: microsomal fractions of BIN1-6 mutant Arabidopsis plants
From the text: as §1, §2

BIN1 [3] = assay: BL induced BIN1 phosphorylation in seedlings (mobility shift on SDS-PAGE, immunoblot); format: in vivo, Arabidopsis; conditions: BIN1-6 and BIN1117 mutant seedlings, 1 μM BL for 1 hour
Experimental: (§3) Proteins were analyzed by 4% SDS-PAGE, blotted, and probed with anti-BIN1N antibody. b.
(§4) Samples were analyzed by SDS-PAGE using 4% gels and western blotting as described above. […] For phosphatase treatment, SDS was removed from protein samples using the SDS-OUT kit (Pierce), and the proteins were then treated with alkaline phosphatase (Boehringer Mannheim) and protein phosphatase I (PPI, New England Biolab) under conditions recommended by the manufacturer and as described.

BIN1-GFP [4] = target: T3, BIN1-GFP (Arabidopsis thaliana, UniProt O22476); conditions: membrane fractions of BIN1-GFP transgenic plants
BIN1 [5] = target: T4, BIN1 (Arabidopsis thaliana, UniProt O22476); conditions: membrane fractions of wild-type plants
T4 sequence (O22476 24-1196): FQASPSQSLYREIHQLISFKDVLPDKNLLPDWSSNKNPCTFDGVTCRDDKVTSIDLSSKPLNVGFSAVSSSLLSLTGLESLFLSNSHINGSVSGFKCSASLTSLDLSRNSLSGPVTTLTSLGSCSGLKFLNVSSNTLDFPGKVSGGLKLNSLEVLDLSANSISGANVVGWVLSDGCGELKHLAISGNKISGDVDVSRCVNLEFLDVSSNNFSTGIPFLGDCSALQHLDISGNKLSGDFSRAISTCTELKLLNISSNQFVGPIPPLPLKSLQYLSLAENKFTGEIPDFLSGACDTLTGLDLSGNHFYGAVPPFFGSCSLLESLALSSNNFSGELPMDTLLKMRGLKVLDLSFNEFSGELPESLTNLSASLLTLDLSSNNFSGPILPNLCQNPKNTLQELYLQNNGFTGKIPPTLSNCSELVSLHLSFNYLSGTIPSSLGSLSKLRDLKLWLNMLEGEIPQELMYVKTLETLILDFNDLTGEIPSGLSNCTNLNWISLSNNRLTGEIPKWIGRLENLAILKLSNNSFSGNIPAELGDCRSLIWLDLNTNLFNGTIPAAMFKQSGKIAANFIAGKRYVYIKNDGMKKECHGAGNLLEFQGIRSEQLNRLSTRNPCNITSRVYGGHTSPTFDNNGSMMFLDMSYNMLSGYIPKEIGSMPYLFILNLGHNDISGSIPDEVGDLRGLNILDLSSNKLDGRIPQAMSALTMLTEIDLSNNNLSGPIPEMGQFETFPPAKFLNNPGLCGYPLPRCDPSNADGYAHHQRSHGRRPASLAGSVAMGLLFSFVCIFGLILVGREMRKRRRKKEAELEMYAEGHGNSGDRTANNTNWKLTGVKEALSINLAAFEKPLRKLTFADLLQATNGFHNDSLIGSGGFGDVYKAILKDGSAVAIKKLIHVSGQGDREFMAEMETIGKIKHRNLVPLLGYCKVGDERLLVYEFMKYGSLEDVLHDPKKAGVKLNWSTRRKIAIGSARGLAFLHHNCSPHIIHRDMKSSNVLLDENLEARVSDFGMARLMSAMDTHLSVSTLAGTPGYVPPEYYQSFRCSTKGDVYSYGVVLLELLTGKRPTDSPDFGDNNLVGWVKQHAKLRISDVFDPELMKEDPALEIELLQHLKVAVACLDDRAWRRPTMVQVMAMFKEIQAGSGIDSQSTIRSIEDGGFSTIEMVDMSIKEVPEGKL

BIN1 [6] = target: T4, BIN1; assay: BL induced BIN1 phosphorylation in seedlings (mobility shift on SDS-PAGE, immunoblot); format: in vivo; parameters: from tissue; host or cells: wild-type Arabidopsis seedlings (microsomal fractions in A2; whole seedlings in A10); conditions: det2 BL biosynthetic mutant seedlings, 1 μM BL for 1 hour
Experimental: as §3, §4

BIN1 [7] = target: T4, BIN1; assay: Binding kinetic studies of specific BL binding; parameters: from tissue; host or cells: wild-type Arabidopsis seedlings (microsomal fractions in A2; whole seedlings in A10)
From the text: as §2

BIN1-GFP [8] = target: T3, BIN1-GFP; format: binding; parameters: expressed in transfected cells; host or cells: transgenic Arabidopsis plants (microsomal fractions, or anti-GFP immunoprecipitate from extracts)

T3 sequence (O22476 with tags, fused parts or gaps): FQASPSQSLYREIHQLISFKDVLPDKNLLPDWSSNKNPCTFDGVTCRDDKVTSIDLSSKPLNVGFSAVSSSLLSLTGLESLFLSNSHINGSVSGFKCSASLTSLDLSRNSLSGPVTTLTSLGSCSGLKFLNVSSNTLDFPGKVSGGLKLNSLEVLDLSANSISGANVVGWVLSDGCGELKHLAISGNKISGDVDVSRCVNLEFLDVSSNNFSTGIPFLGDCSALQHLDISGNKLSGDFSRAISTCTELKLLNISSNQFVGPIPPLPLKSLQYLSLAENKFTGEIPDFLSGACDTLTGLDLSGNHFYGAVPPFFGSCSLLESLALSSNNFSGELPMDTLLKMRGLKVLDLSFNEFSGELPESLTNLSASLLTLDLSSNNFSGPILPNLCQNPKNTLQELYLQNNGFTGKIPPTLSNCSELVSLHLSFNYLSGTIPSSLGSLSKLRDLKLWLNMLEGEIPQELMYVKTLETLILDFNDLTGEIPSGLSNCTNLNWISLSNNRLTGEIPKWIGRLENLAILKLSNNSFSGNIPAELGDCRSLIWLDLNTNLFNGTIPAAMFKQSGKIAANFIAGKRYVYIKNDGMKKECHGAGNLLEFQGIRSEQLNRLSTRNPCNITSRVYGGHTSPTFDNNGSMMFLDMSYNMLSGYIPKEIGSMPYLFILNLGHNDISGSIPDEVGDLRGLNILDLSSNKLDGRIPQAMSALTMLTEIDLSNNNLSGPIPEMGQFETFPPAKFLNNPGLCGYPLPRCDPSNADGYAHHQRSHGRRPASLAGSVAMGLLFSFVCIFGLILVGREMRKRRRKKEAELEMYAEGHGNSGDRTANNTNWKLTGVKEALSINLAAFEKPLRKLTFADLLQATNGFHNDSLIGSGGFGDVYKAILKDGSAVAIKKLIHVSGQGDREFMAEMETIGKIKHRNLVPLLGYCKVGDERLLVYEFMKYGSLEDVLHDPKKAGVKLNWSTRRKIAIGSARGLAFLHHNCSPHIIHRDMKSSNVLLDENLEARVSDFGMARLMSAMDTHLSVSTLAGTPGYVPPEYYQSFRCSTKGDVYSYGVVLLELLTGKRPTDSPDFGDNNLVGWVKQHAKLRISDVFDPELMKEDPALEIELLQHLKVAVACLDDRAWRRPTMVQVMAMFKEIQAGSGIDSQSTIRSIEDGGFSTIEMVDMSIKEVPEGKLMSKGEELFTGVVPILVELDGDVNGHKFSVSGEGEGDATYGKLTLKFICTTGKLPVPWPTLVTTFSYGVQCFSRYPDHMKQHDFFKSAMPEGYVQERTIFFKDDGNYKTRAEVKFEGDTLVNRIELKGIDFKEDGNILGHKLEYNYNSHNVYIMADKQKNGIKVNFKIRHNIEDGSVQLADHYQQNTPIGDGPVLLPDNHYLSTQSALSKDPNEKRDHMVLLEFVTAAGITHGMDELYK
T2 sequence (O22476 24-1196 G644D): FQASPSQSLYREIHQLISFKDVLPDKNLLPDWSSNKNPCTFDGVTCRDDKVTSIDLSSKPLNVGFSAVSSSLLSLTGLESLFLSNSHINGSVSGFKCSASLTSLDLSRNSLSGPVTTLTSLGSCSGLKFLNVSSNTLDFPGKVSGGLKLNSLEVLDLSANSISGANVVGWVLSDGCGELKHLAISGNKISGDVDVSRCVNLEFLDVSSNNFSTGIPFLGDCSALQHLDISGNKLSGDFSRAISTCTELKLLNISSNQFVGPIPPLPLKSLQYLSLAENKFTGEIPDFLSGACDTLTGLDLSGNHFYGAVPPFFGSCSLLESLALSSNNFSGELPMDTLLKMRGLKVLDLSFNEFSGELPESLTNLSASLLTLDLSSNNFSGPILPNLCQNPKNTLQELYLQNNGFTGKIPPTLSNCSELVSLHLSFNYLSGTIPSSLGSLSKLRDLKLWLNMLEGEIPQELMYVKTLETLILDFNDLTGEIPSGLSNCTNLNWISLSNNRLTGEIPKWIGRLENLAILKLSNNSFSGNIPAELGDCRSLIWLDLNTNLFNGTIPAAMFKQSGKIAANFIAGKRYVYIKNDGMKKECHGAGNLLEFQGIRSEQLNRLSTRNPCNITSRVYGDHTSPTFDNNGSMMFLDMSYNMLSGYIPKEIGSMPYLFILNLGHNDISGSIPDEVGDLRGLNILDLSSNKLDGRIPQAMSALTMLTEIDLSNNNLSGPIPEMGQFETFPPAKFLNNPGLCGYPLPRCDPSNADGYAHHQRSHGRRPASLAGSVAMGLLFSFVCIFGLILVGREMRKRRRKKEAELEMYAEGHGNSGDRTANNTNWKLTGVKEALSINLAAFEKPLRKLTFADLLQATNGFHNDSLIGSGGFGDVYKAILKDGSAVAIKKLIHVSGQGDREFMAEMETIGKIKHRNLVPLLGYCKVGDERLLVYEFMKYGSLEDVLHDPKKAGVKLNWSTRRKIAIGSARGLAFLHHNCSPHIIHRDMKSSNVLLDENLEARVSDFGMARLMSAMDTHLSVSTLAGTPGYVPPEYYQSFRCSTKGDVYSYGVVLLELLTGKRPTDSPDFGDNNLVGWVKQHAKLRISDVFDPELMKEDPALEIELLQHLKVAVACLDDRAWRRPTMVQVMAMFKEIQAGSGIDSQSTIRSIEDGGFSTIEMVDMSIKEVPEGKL

Question: For 2,3,22,23-O-tetramethylBL [Me-BL], which “biological activity in plants” value (plants) is on record?
Answer: The value was “lack of biological activity”.

Question: For `CC(C)[C@H](C)[C@@H](O)[C@H](O)[C@@H](C)[C@H]1CC[C@H]2[C@@H]3COC(=O)[C@H]4C[C@H](O)[C@H](O)C[C@]4(C)[C@H]3CC[C@]12C` [BL, brassinolide], which BL binding activity [1] is on record?
Answer: Its BL binding activity is “greatly reduced”.

Question: What about the BL binding activity [2] of the same molecule?
Answer: Its BL binding activity is “greatly reduced”.

Question: What about the “BL-induced BIN1 phosphorylation” value (BIN1 [3]) of the same molecule?
Answer: Its value is “not”.

Question: And the “Bmax (BL binding sites)” value (BIN1-GFP [4])?
Answer: The value was 2.66 pmole mg^−1 membrane protein.

Question: What about the “Bmax (BL binding sites)” value (BIN1 [5]) of the same molecule?
Answer: Its value is 0.23 pmole mg^−1 membrane protein.

Question: What about the “BL-induced BIN1 phosphorylation” value (BIN1 [6]) of the same molecule?
Answer: The value was “also observed”.

Question: And the “time to 50% competition by unlabelled BL (reversibility of binding)” value (BIN1 [7])?
Answer: Its value is “less than 1 min”.

Question: What about the “time for specific BL binding to reach equilibrium” value (BIN1 [7]; incubation at 25° C.) of the same molecule?
Answer: The value was ≤ 15 min.

Question: With `CC(C)[C@H](C)[C@@H](O)[C@H](O)[C@@H](C)[C@H]1CC[C@H]2[C@@H]3CC(=O)[C@H]4C[C@H](O)[C@H](O)C[C@]4(C)[C@H]3CC[C@]12C` [castasterone] as the molecule, how does the “activity in bioassays relative to BL” value (plants; bioassays) read?
Answer: Its value is “about 5 times less active than BL”.

Question: What about the “relative binding affinity (RBA, ratio between IC50 of a competitor and that of BL)” value (BIN1-GFP [8]; membrane fraction of BIN1-GFP plants) of the same molecule?
Answer: Its value is 4-5 times lower than BL.

Question: What about the IC50 (BIN1-GFP [8]; read-out: 50% inhibition concentration, IC50, of [3H]-BL binding, membrane fraction of BIN1-GFP plants) of the same molecule?
Answer: The IC50 was 340 nM.

Question: Which results are given for `C[C@H]([C@H](O)CCC(C)(C)O)[C@H]1CC[C@@]2(O)C3=CC(=O)[C@@H]4C[C@@H](O)[C@@H](O)C[C@]4(C)[C@H]3CC[C@]12C` [ecdysone]?
Answer: biological activity in plants (plants): lack of biological activity; IC50 (BIN1-GFP [8]): > 10000 nM
